Data reported in US12617756B2 (ABIVAX, priority 2019, dated 2026).
pEC50: −log10 of the molar value.

Each compound was assayed on RSV A2 (assay: Screening for RSV inhibition using Viral ToxGlo assay (cytopathic effect inhibition in HEp-2 cells)). Settings: human respiratory syncytial virus; RSV A2 in HEp-2 cells, MOI 0.5, 72h p.i., cytopathic effect inhibition relative to virus control, Viral ToxGlo luminescence.
Type: cell-based, Respiratory Syncytial Virus (RSV)
Experimental: Protocol for Screening Antiviral Compounds for RSV Inhibition and Cytotoxicity Using Viral ToxGlo Assay
HEp-2 cells were maintained in Eagle's minimum essential medium (EMEM) with Earle's BSS adjusted to contain 2 mM L-glutamine, 10% fetal bovine serum, 100 U/ml penicillin and 100 µg/ml streptomycin. For the purposes of the screening assay they were grown to 90% confluency, trypsinized and recovered. The trypsin was neutralised with cell culture media and cells were centrifuged at 150×g for 5 minutes before discarding the supernatant and resuspending cell pellet in assay media (EMEM with Earle's BSS adjusted to contain 2 mM L-glutamine, 2% fetal bovine serum and 100 U/ml penicillin and 100 µg/ml streptomycin). The cells were seeded into white clear-bottomed cell culture plates at a density of 1.5×10^4 cells/well in 50 μl and 4×10^3 cells/well in 25 μl for 96 well plates and 384 well plates respectively. For the media/background control column assay media only was added. Cell plates were placed in a humid chamber and incubated overnight at 37° C./5% CO2. After overnight incubation cells were checked for confluency and healthy appearance.
Test articles were made up at 10× test concentration in a maximum DMSO concentration of 10% (final assay concentration maximal 1% DMSO) and added to the cell plates in volumes of […] for 96 well plates and 5 μl for 384 well plates. For cell control and virus control wells the test article solvent only was added. Virus or assay media for cytotoxicity test wells and media/cell control wells was added immediately after test articles at an MOI of […] for 96 and 384 well plates respectively. Virus suspension was prepared by thawing RSV A2 frozen stocks and diluting to the required concentration of plaque forming units in assay media on ice.
Cell plates were further incubated inside a humid chamber for 72h p.i at 37° C./5% CO2. After the incubation period cells were observed under the microscope to check for characteristic cytopathic effect in virus control wells and healthy cells in the cell control wells. After plates were adjusted to room temperature 20/40 μl Viral ToxGlo (Promega) was added to each well of the 384/96 well cell plates. Plates were incubated at room temperature, protected from light on a plate rocker for 20 minutes before measuring the luminescence on a spectrophotometer (Biotek Synergy HTX).

Compound	pEC50
CC1(C(=O)Nc2cccc(Nc3c(F)cc(C(=O)N=C4NCCN4)cc3C3CC3)c2)COC1 [Compound 163, N-{3-[(2-cyclopropyl-6-fluoro-4-{[imidazolidin-2-ylidene]carbamoyl}phenyl)amino]phenyl}-3-methyloxetane-3-carboxamide]	7.46
Cc1c(Nc2ccc(C(=O)N=C3NCCN3)cc2C2CC2)cccc1-c1ncc(Cl)[nH]1 [Compound 57, 4-{[3-(5-chloro-1H-imidazol-2-yl)-2-methylphenyl]amino}-3-cyclopropyl-N-[(2Z)-imidazolidin-2-ylidene]benzamide]	6.70
CC(C)NC(=O)c1cccc(Nc2ccc(C(=O)N=C3NCCN3)cc2C2CC2)c1-c1ccoc1 [Compound 92, 3-[(2-cyclopropyl-4-{[(2Z)-imidazolidin-2-ylidene]carbamoyl}phenyl)amino]-2-(furan-3-yl)-N-(propan-2-yl)benzamide]	6.56
CC(C)CCC(=O)Nc1ccccc1Oc1ccc(C(=O)N=C2NCCN2)cc1C1CC1 [Compound 100, 3-cyclopropyl-N-[(2E)-imidazolidin-2-ylidene]-4-[2-(4-methylpentanamido)phenoxy]benzamide]	6.34
O=C(N=C1NCCN1)c1ccc(Nc2cccc(C(=O)NCCC3CCOCC3)c2)c(C2CC2)c1 [Compound 58, 3-cyclopropyl-N-[(2E)-imidazolidin-2-ylidene]-4-[(3-{[2-(oxan-4-yl)ethyl]carbamoyl}phenyl)amino]benzamide]	6.68
O=C(N=C1NCCN1)c1ccc(Nc2cccc(OCC3COCCO3)c2)c(C2CCCC2)c1 (stereo not drawn) [Compound 51, 3-cyclopentyl-4-({3-[(1,4-dioxan-2-yl)methoxy]phenyl}amino)-N-[(2E)-imidazolidin-2-ylidene]benzamide]	6.85
CC1(NC(=O)c2cccc(Nc3c(F)cc(C(=O)N=C4NCCN4)cc3C3CCCO3)c2Cl)CC1 (stereo not drawn) [Compound 135, 4-({2-chloro-3-[(1-methylcyclopropyl)carbamoyl]phenyl}amino)-3-fluoro-N-[imidazolidin-2-ylidene]-5-(oxolan-2-yl)benzamide]	7.54
CC(=O)N1CCN/C1=N\C(=O)c1ccc(Nc2cccc(OCCCC3CCCCC3)c2)c(C2CC2)c1 [Compound 46, N-[(2E)-1-acetylimidazolidin-2-ylidene]-4-{[3-(3-cyclohexylpropoxy)phenyl]amino}-3-cyclopropylbenzamide]	6.98
CC(C)C(=O)Nc1cccc(Nc2ccc(C(=O)N=C3NCCN3CC(F)F)cc2C2CC2)c1 [Compound 113, 3-cyclopropyl-N-[1-(2,2-difluoroethyl)imidazolidin-2-ylidene]-4-{[3-(2-methylpropanamido)phenyl]amino}benzamide]	7.22
CC(=O)N1CCN/C1=N\C(=O)c1ccc(Nc2cccc(NC(=O)C(C)C)c2)c(C2CC2)c1 [Compound 110, N-[(2E)-1-acetylimidazolidin-2-ylidene]-3-cyclopropyl-4-{[3-(2-methylpropanamido)phenyl]amino}benzamide]	6.49
CC1(NC(=O)c2cccc(Nc3c(F)cc(C(=O)N=C4NCCN4)cc3C3CC3)c2)CC1 [Compound 117, 3-cyclopropyl-5-fluoro-N-[imidazolidin-2-ylidene]-4-({3-[(1-methylcyclopropyl)carbamoyl]phenyl}amino)benzamide]	8.25
CC1(NC(=O)c2cccc(Nc3c(F)cc(C(=O)N=C4NCCN4)cc3C3CCCO3)c2)CC1 (stereo not drawn) [Compound 125, 3-fluoro-N—[imidazolidin-2-ylidene]-4-({3-[(1-methylcyclopropyl)carbamoyl]phenyl}amino)-5-(oxolan-2-yl)benzamide]	7.72
CC1(NC(=O)c2cccc(Nc3c(C#N)cc(C(=O)N=C4NCCN4)cc3C3CC3)c2)CC1 [Compound 149, 3-cyano-5-cyclopropyl-N-[imidazolidin-2-ylidene]-4-({3-[(1-methylcyclopropyl)carbamoyl]phenyl}amino)benzamide]	7.34
CC(C)NC(=O)c1cccc(Nc2ccc(C(=O)/N=C3\NCCN3C)cc2C(C)(C)C)c1 [Compound 17, 3-tert-butyl-N-[(2E)-1-methylimidazolidin-2-ylidene]-4-({3-[(propan-2-yl)carbamoyl]phenyl}amino)benzamide]	7.70
CC(C)CNC(=O)c1ccccc1Nc1ccc(C(=O)N=C2NCCN2)cc1C(C)(C)C [Compound 56, 3-tert-butyl-N-[(2E)-imidazolidin-2-ylidene]-4-({2-[(2-methylpropyl)carbamoyl]phenyl}amino)benzamide]	6.76
O=C(N=C1NCCN1)c1cc(F)c(Nc2nccc(C(=O)N3C[C@@H]4C[C@H]3CO4)c2F)c(C2CC2)c1 [Compound 159, 3-cyclopropyl-5-fluoro-4-({3-fluoro-4-[(1S,4S)-2-oxa-5-azabicyclo[2.2.1]heptane-5-carbonyl]pyridin-2-yl}amino)-N—[imidazolidin-2-ylidene]benzamide]	6.65
CC(C)NC(=O)c1cccc(Nc2c(F)cc(C(=O)N=C3NCCN3)cc2C2CC2)c1 [Compound 91, 3-cyclopropyl-5-fluoro-N-[(2Z)-imidazolidin-2-ylidene]-4-({3-[(propan-2-yl)carbamoyl]phenyl}amino)benzamide]	8.70
O=C(N=C1NCCN1)c1ccc(Nc2cccc(C(=O)N3CCOCC3)c2C2CC2)c(C(F)(F)F)c1 [Compound 42, 4-{[2-cyclopropyl-3-(morpholine-4-carbonyl)phenyl]amino}-N-[(2Z)-imidazolidin-2-ylidene]-3-(trifluoromethyl)benzamide]	7.11
CC(C)NC(=O)c1ccccc1Nc1ccc(C(=O)N=C2NCCN2)cc1C(C)(C)C [Compound 54, 3-tert-butyl-N-[(2E)-imidazolidin-2-ylidene]-4-({2-[(propan-2-yl)carbamoyl]phenyl}amino)benzamide]	6.78
CC1(NC(=O)c2ccnc(Nc3ccc(C(=O)N=C4NCCN4)cc3C3CC3)c2Cl)CC1 [Compound 123, 3-chloro-2-[(2-cyclopropyl-4-{[imidazolidin-2-ylidene]carbamoyl}phenyl)amino]-N-(1-methylcyclopropyl)pyridine-4-carboxamide]	7.08
CN1CCN/C1=N\C(=O)c1ccc(Nc2cccc(C(=O)NC3(C)CC3)c2)c(C(C)(C)C)c1 [Compound 24, 3-tert-butyl-4-({3-[(1-methylcyclopropyl)carbamoyl]phenyl}amino)-N-[(2E)-1-methylimidazolidin-2-ylidene]benzamide]	7.50
CC(C)(C)c1cc(C(=O)N=C2NCCN2)ccc1Nc1cccc(C(=O)NCCC2CCCCO2)c1 (stereo not drawn) [Compound 35, 3-tert-butyl-N-[(2E)-imidazolidin-2-ylidene]-4-[(3-{[2-(oxan-2-yl)ethyl]carbamoyl}phenyl)amino]benzamide]	7.29
CC(C)C(=O)Nc1cccc(Nc2ccc(C(=O)N=C3NCCN3)cc2C2CCOC2)c1 (stereo not drawn) [Compound 63, N-[(2E)-imidazolidin-2-ylidene]-4-{[3-(2-methylpropanamido)phenyl]amino}-3-(oxolan-3-yl)benzamide]	6.14
CC1(NC(=O)c2cccc(Nc3ccc(C(=O)N=C4NCCN4)cc3C3CC3)c2)CC1 [Compound 14, 3-cyclopropyl-N-[(2Z)-imidazolidin-2-ylidene]-4-({3-[(1-methylcyclopropyl)carbamoyl]phenyl}amino)benzamide]	7.84
